Structures can show the parent of a compound that is named as a salt.
Legend:
Type in all cases: biochemical
[1] = system: Protease XXIII from Aspergillus oryzae (Sigma, Enzyme A); test: Homogeneous aqueous enzymatic resolution (ester hydrolysis), Enzyme A; conditions: acid product; 100 mg enzyme A, pH 7.0, 20-22 C, 20 hours
Protocol: No further purification was performed.

[2] = biological target: T1, Protease XXVII, Nagarse (Sigma, Enzyme D) (Bacillus amyloliquefaciens, UniProt P00782); test: Homogeneous aqueous enzymatic resolution (ester hydrolysis), Enzyme D; conditions: 100 mg enzyme D, 10 mmol ester in 100 ml 0.2 M phosphate buffer pH 7.0, 20-22 C, 20 hours
T1 construct: purchased Sigma
T1 sequence (P00782 108-382): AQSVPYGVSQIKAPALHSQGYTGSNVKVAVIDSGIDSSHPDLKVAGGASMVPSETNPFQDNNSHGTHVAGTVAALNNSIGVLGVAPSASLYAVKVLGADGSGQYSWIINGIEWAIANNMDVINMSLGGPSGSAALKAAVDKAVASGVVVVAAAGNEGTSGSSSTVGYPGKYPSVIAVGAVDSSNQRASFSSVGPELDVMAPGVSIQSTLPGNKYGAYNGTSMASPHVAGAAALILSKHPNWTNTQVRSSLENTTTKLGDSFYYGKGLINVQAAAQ

[3] = system: protease Prozyme 6 from Aspergillus oryzae (Amano, Enzyme F); test: Homogeneous aqueous enzymatic resolution (ester hydrolysis), Enzyme F
Protocol: (§1) The enzymatic reaction mixtures were capped and briefly shaken until all the substrate had dissolved, and the enzyme had completely dissolved or dispersed. […] Evaporation of the ether left a white solid. Rotations were measured at c=1 in CHCl3.
as §1
The reaction was started by adding 100 mg of the protease (F) from the fungus Aspergillus oryzae (from Amano Enzyme Corporation, Prozyme 6, 60,000 units per mg of solid).
After 20 hours at room temperature, the solution was acidified to pH 2 and extracted with 3 volumes of diethyl ether. The aqueous phase was saved for subsequent workup. The ether phase was washed with two volumes of distilled water and then one volume of saturated sodium chloride, and then it was dried over MgSO4 and subsequently evaporated to dryness. The resolved ibuprofen product recovered was 930 mg of white powder, indicating 45% conversion of racemic ester to acid. The optical rotation was -0.580° (measured at c=1 in ethanol), indicating the R isomer of ibuprofen.
35 mg of protease Enzyme F, as the commercial preparation Prozyme 6, were added to the aqueous solution. The reaction flask was capped, and briefly shaken until all the enzyme had dissolved or dispersed. […] The resulting mixture was diluted with one volume of water and was extracted with diethyl ether (2 times 200 ml). The ether layers were combined and backwashed with water (2 times 200 ml), saturated NaCl solution (200 ml), and then dried over MgSO4.
In this control run, a 0.5M ester solution of (1) was prepared in 325 ml of 0.1M sodium phosphate buffer (pH 7.0). The reaction was started by adding 3 gm of the above enzyme (F). The pH was controlled at 7.0 with 8.22M sodium hydroxide. After 6.49 hours at 30 ° C., 6.63 ml of hydroxide were added, indicating 37.7% conversion. The reaction was allowed to continue overnight and, after 23.1 hours, a total of 7.2 ml of sodium hydroxide were added, indicating 40.9% conversion.

[4] = system: protease Prozyme 6 from Aspergillus oryzae (Amano, Enzyme F); test: Asymmetric hydrolysis in an extractive dispersion reactor, Enzyme F; conditions: 100 mg Prozyme 6, 3.38 gm ester in 100 ml buffer pH 7.0 plus 100 ml hexane, room temperature, 3.5 hours
Protocol: In this Example, the hexane was dispersed in the reaction vessel to extract the inhibitory ibuprofen acid as it is formed. The reaction was started by adding 100 mg of the protease from the fungus Aspergillus oryzae (from Amano Enzyme Corporation, Prozyme 6, 60,000 units per mg of solid).
After 3.5 hours at room temperature with vigorous stirring, the solution was acidified to pH 2 and extracted with 2 volumes of hexane. The aqueous phase was saved for subsequent workup. The hexane phase was dried over MgSO4 and evaporated to dryness. The resolved ibuprofen product so recovered consisted of 490 mg of white powder, indicating 24% conversion. The optical rotation was -0.568° (c=1.015 in ethanol), indicating the R isomer of ibuprofen.

[5] = system: protease Prozyme 6 from Aspergillus oryzae (Amano, Enzyme F); test: Asymmetric hydrolysis in an extractive membrane reactor, enzyme not associated with the membrane, Enzyme F
Text: Hexane was recirculated through the lumen or bores of the fibers in the module. The aqueous solution in the shell contained the enzyme and ester. While the cellulose membrane is water-wet, the membrane rejects the macromolecular enzyme (molecular weight 18,000). Therefore, the enzyme resides solely in the aqueous ester solution. As the ibuprofen acid was formed, it was extracted into the hexane phase, thereby reducing the effect of product (ibuprofen acid) inhibition on the activity of the enzyme.
The aqueous phase used to extract the ibuprofen acid from hexane in this module contained 0.1M sodium carbonate buffer at pH 9.5. The pH was maintained at this value by the addition of 8.22M sodium hydroxide as required.
In this Example, the aqueous stream in the extractive membrane reactor module consisted of a solution of the sulfomethyl ester of ibuprofen (1), which solution was prepared by adding 32.51 gm of the sodium salt of the ester (at 75% chemical purity) to 1000 ml of 0.1M sodium phosphate buffer (pH 7.0). The reaction was started by adding 2 gm of the protease (F) from the fungus Aspergillus oryzae (from Amano Enzyme Corporation, Prozyme 6, 60,000 units per gm of solid). […]
The optical rotation of the recovered product was measured by polarimetry; the experimentally determined value for [α]D was -56.7° (measured at c=0.815 in ethanol), thereby indicating the R isomer of ibuprofen. The sample was also analyzed by chiral HPLC using a Bakerbond DNBPG (covalent) column (4.6×250 mm), with 96.9% hexane:3.0% 2-propanol:0.1% acetonitrile as the mobile phase at 2 ml/min after derivatization with naphthalene amine. […] The optical purity or enantiomeric excess of this R ibuprofen sample as determined by this chiral HPLC procedure was 99.3% (i.e., enantiomeric excess of R ibuprofen).
The aqueous phase at pH 7.0 (as recovered from the extractive membrane reactor) was mixed with 280 gm of sodium chloride to salt out the remaining unconverted ester. […] The optical rotation (as measured by polarimetry) was [α]D =+57.4° (c=1.29 in ethanol), indicating the S isomer of ibuprofen. […]

[6] = system: lipase from Candida cylindracea (Meito Sangyo, Lipase OF); test: Activity of the carrier lipase against the ester
[7] = biological target: T2, Protease VIII, Subtilopeptidase A (subtilisin Carlsberg) (Sigma, Enzyme B) (Bacillus licheniformis, UniProt P00780); test: pH-stat rate of hydrolysis of single enantiomers, Enzyme B; conditions: 50 mM single enantiomer, 50 mM buffer pH 7.6, enzyme B
T2 sequence (P00780 106-379): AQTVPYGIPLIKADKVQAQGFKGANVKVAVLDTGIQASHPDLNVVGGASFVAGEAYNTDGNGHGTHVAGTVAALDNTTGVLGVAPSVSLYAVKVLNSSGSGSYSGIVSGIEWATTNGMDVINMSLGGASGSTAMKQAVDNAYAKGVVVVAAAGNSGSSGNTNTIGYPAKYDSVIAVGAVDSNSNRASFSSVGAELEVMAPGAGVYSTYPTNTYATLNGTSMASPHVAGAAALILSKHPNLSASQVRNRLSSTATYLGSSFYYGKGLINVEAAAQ
Protocol: 15 ml of a solution containing one enantiomer of the ester at a concentration of 50 mM, and Na3 PO4 buffer at 50 mM and pH 7.6 wa observed using pH stat device 0.1 ml of a 50 mg/ml solution of enzyme B, made up from
(§2) the commercially available preparation in 50 mM Na3 PO4 buffer at pH 7.6, were added. Rates of hydrolysis of both enantiomers of the ester compound were determined for the enzyme. The ratio of the rates of hydrolysis for the two enantiomers for the two enantiomers with respect to the enzyme indicate the stereospecificity of that enzyme's hydrolytic action on the racemic mixture of the ester. No evidence for the hydrolysis of the acetylthio ester portion of the substrate molecule was found.

[8] = system: Protease XIV from Streptomyces griseus (Sigma, Enzyme I); test: pH-stat rate of hydrolysis of single enantiomers, Enzyme I; conditions: 50 mM single enantiomer, 50 mM buffer pH 7.6, enzyme I
Protocol: as §2, with “15 ml of a solution containing one enantiomer of the ester at a concentration of 50 mM, and Na3 PO4 buffer at 50 mM and pH 7.6 was observed using a pH stat device. 0.1 ml of a 50 mg/ml solution of protease enzyme I, made up from the commercially” for “the commercially”, “for the protease enzyme. The” for “for the enzyme. The”

[9] = system: Protease XXIII from Aspergillus oryzae (Sigma, Enzyme A); test: pH-stat rate of hydrolysis of single enantiomers, Enzyme A; conditions: 50 mM single enantiomer, 50 mM buffer pH 7.6, enzyme A
Protocol: 15 ml of a solution containing one enantiomer of the ester at a concentration of 50 mM, and Na3 PO4 buffer at 50 mM and pH 7.6 was observed using a pH stat device. 0.1 ml of a 50 mg/ml solution of enzyme A, made up from
Rates of hydrolysis of both enantiomers of the ester compound were
determined for the enzyme. The ratio of the rates of hydrolysis for the
two enantiomers for the two enantiomers with respect to the enzyme
indicate the stereospecificity of that enzyme's hydrolytic action on the […]

[10] = system: Protease XXIV, bacterial protease (Sigma, Enzyme J); test: pH-stat rate of hydrolysis of single enantiomers, Enzyme J; conditions: 50 mM single enantiomer, 50 mM buffer pH 7.6, enzyme J
Protocol: as §2, with “15 ml of a solution containing one enantiomer of the ester at a concentration of 50 mM, and Na3 PO4 buffer at 50 mM and pH 7.6 was observed using a pH stat device. 0.1 ml of a 50 mg/ml solution of Enzyme J, made up from the commercially” for “the commercially”

[11] = biological target: T1, Protease XXVII, Nagarse (Sigma, Enzyme D); test: pH-stat rate of hydrolysis of single enantiomers, Enzyme D; conditions: 50 mM single enantiomer, 50 mM buffer pH 7.6, enzyme D
Protocol: as §2, with “15 ml of a solution containing one enantiomer of the ester at a concentration of 50 mM, and Na3 PO4 buffer at 50 mM and pH 7.6 was observed using a pH stat device. 0.1 ml of a 50 mg/ml solution of enzyme D, made up from the commercially” for “the commercially”, “of the thioacetyl ester portion” for “of the acetylthio ester portion”

[12] = chiral HPLC, after 50% conversion

Row | Structure (SMILES) | % e.e. [1] [%] | % CONVERSION [2] [%] | conversion of racemic ester to acid ([3]; 100 mg Prozyme 6 (F), 3.22 gm ester in 100 ml 0.2M sodium phosphate pH 7.0, room temperature, 20 hours) [%] | conversion ([3]; 0.5M ester, 3 gm enzyme F, pH 7.0, 30 C, after 23.1 hours, 500000 µM) [%] | conversion [4] [%] | conversion of the racemic ester to ibuprofen acid ([5]; 2 gm Prozyme 6, 32.51 gm ester in 1000 ml 0.1M sodium phosphate pH 7.0, hexane extractant, room temperature, 6.3 hours) [%] | enantiomeric excess of R ibuprofen (acid product) [5, 12] [%] | enantiomeric excess of S ibuprofen (from unconverted ester hydrolyzed at pH 12) [5, 12] [%] | activity of the lipase against the ester [6] | Rate of hydrolysis [7] [umols/hr/mg] | Rate of hydrolysis [8] [umols/hr/mg] | Rate of hydrolysis [9] [umols/hr/mg] | Rate of hydrolysis [10] [umols/hr/mg] | Rate of hydrolysis [11] [umols/hr/mg]
1 | CC(C)Cc1ccc(C(C)C(=O)OCS(=O)(=O)O)cc1 (racemic) [Compound 1, Sodium Salt of 4-Sulfomethyl Ester of 2-(4-Isobutylphenyl)propanoic Acid] | > 99 | 34.0 | 45 | 40.9 | 24 | 50 | 99.3 | 98.9 | inactive |  |  |  |  | 
2 | CC(=O)SC[C@@H](C)C(=O)OCS(=O)(=O)O [Compound 14, Potassium Salt of the Sulfomethyl Ester of D-(-)-S-3-Acetylthio-2-methylpropanoic Acid] |  |  |  |  |  |  |  |  |  | 65 | 63 | 5.3 | 61 | 27
3 | CC(=O)SC[C@H](C)C(=O)OCS(=O)(=O)O [Compound 15, Potassium Salt of the Sulfomethyl Ester of L-(+)-S-3-Acetylthio-2-methylpropanoic Acid] |  |  |  |  |  |  |  |  |  | 135 | 105 | 12 | 65 | 29

Source: patent US5198568A, “Compounds useful in enzymatic resolution systems and their preparation” (priority 1991, dated 1993)
